Experimental data as given in US12385042B2, “Cell-penetrating peptides” (VECTIOPEP OÜ, priority 2019, dated 2025).
Where a SMILES comes first, the peptide text is derived from it. Bridges are numbered along the chain shown (N, C = ends). Roman numbers before positions name the chains, in order. [ ]: non-standard residue; d: D form. The star is where a group is joined. Stearoyl = CCCCCCCCCCCCCCCCCC(=O)*; Orn = NCCC[C@H](N)C(=O)O

Legend:
Proteinase K = biological target: T1, Proteinase K (Parengyodontium album, UniProt P06873); assay: Stability of CPP/siRNA complexes to degradation by Proteinase K; format: physicochemical; conditions: Proteinase K >14.4 U per well
T1 construct: purchased Thermo Scientific, USA
T1 sequence (P06873 106-384): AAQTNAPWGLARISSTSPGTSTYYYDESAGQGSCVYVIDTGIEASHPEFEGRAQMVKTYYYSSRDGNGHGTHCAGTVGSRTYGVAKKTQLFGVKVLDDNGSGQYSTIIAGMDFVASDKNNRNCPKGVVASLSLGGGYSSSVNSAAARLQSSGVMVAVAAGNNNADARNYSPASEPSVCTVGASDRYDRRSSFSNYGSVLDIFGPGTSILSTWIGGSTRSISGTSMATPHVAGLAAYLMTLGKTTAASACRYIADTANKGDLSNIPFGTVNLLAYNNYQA
Description: To assess protection of siRNA from enzymatic degradation, after addition of PG dilution and initial measurement to set a starting point, Proteinase K (Thermo Scientific, USA) was added (>14 U/ml, 20 ul of mixture per well containing dilution of 120 ul of enzyme in 1 ml), co-incubated with complexes and fluorescence was measured over a 10 h period.

U87 cells = assay: MTS toxicity assay; format: cell-based, human
Description: Cell proliferation was determined with the CellTiter 96® Aqueous Non-Radioactive Cell Proliferation Assay (MTS) (Promega Biotech AB, Sweden) according to the manufacturer's instructions. For this 1×10^5 U87 cells were seeded 1 day prior to experiment on transparent 96-well plates. On experiment day, media was replaced with 90 ul of fresh media and to the cells complexes formed at MR30 (both with 25 nM and 100 nM final siRNA concentrations) or free peptide at the range of 0.5-4 uM final concentrations were added. Cells were treated with complexes for 20 h. MTS was added according to the manufacturer's protocol. The absorbance of formazan product was measured at 490 nm with Tecan Sunrise microplate absorbance reader (Tecan Group Ltd, Switzerland) and percentage of viable cells was calculated using GraphPad Prism software 5.0 (Graphpad Software, CA, USA).

CCCCCCCCCCCCCCCCCC(=O)N[C@@H](Cc1c[nH]cn1)C(=O)N[C@@H](Cc1c[nH]cn1)C(=O)N[C@@H](Cc1ccc(O)cc1)C(=O)N[C@@H](Cc1c[nH]cn1)C(=O)N[C@@H](Cc1c[nH]cn1)C(=O)NCC(=O)NCCC[C@H](N)C(=O)N[C@H](C(=O)N[C@@H](CC(C)C)C(=O)N[C@@H](CC(C)C)C(=O)N[C@@H](CCCCN)C(=O)N[C@@H](C)C(=O)N[C@@H](CC(C)C)C(=O)N[C@@H](CCCCN)C(=O)N[C@@H](C)C(=O)N[C@@H](CC(C)C)C(=O)N[C@@H](C)C(=O)N[C@@H](CCCCN)C(=O)N[C@@H](C)C(=O)N[C@H](C(=O)N[C@@H](CC(C)C)C(N)=O)[C@@H](C)CC)[C@@H](C)CC [NF71] (I: H-[Orn]ILLKALKALAKAIL-NH2 / II: Stearoyl-HHYHHG; amide I:1-II:C)
stability of complexes to proteinase K (in words) (Proteinase K): only slightly more resistant than NF55/siRNA complexes | concentration at which free peptide is toxic to cells (MTS) (U87 cells): ≥ 5 µM
